The source made the active and inactive calls. The rule behind the calls is not given here.
Tests used:
[1] = target: Hydroxycarboxylic acid receptor 3 (Homo sapiens) (UniProt P49019); assay: Agonist activity at GPR109b; format: functional
[2] = target: Hydroxycarboxylic acid receptor 3 (Homo sapiens) (UniProt P49019); assay: Agonist activity at GPR109b at 5 to 10 uM; format: functional
[3] = Antidyslipidemic activity in human adipocytes assessed as inhibition of isoproteranol-induced production of free fatty acids; details: Adipocyte
[4] = organism: Mus musculus; assay: Inhibition of niacin-induced vasodilation in mouse; format: functional, organism-based
[5] = tested on: Mus musculus; assay: Induction of vasodilation in mouse assessed as laser doppler changes in ears at 100 mg/kg; format: functional, organism-based; parameters: dose 100 mg/kg
[6] = organism: Mus musculus; assay: Inhibition of prostaglandin-induced vasodilation in mouse; format: functional, organism-based
[7] = tested on: Mus musculus; assay: Antidyslipidemic activity in po dosed mouse assessed as reduction of plasma free fatty acids; format: functional
[8] = Half life in mouse at 3 mg/kg, iv and 10 mg/kg, po; format: ADME, organism-based; details: in vivo
[9] = Plasma clearance in dog at 3 mg/kg, iv and 10 mg/kg, po; format: ADME, organism-based, Canis lupus familiaris
[10] = Volume of distribution at steady state in rat at 3 mg/kg, iv and 10 mg/kg, po; format: ADME, organism-based; details: in vivo, read-out: Vdss
[11] = Oral bioavailability in mouse at 10 mg/kg; format: ADME, organism-based; details: in vivo
[12] = Volume of distribution at steady state in mouse at 3 mg/kg, iv and 10 mg/kg, po; format: ADME, organism-based; details: in vivo, read-out: Vdss
[13] = Oral bioavailability in rat at 10 mg/kg; format: ADME, organism-based; details: in vivo
[14] = Cmax in rat at 3 mg/kg, iv and 10 mg/kg, po; format: ADME, organism-based; details: in vivo
[15] = Half life in monkey at 3 mg/kg, iv and 10 mg/kg, po; format: ADME, organism-based, Macaca mulatta; details: rhesus monkey, in vivo
[16] = Volume of distribution at steady state in monkey at 3 mg/kg, iv and 10 mg/kg, po; format: ADME, organism-based, Macaca mulatta; details: rhesus monkey, in vivo, read-out: Vdss
[17] = Plasma clearance in mouse at 3 mg/kg, iv and 10 mg/kg, po; format: ADME, organism-based
[18] = Oral bioavailability in monkey at 10 mg/kg; format: ADME, organism-based, Macaca mulatta; details: rhesus monkey, in vivo
[19] = Plasma clearance in rat at 3 mg/kg, iv and 10 mg/kg, po; format: ADME, organism-based
[20] = Oral bioavailability in dog at 10 mg/kg; format: ADME, organism-based, Canis lupus familiaris; details: in vivo
[21] = Half life in rat at 3 mg/kg, iv and 10 mg/kg, po; format: ADME, organism-based; details: in vivo
[22] = Plasma clearance in monkey at 3 mg/kg, iv and 10 mg/kg, po; format: ADME, organism-based, Macaca mulatta; details: rhesus monkey
[23] = Cmax in mouse at 3 mg/kg, iv and 10 mg/kg, po; format: ADME, organism-based; details: in vivo
[24] = Cmax in monkey at 3 mg/kg, iv and 10 mg/kg, po; format: ADME, organism-based, Macaca mulatta; details: rhesus monkey, in vivo
[25] = Cmax in dog at 3 mg/kg, iv and 10 mg/kg, po; format: ADME, organism-based, Canis lupus familiaris; details: in vivo
[26] = Volume of distribution at steady state in dog at 3 mg/kg, iv and 10 mg/kg, po; format: ADME, organism-based, Canis lupus familiaris; details: in vivo, read-out: Vdss
[27] = Half life in dog at 3 mg/kg, iv and 10 mg/kg, po; format: ADME, organism-based, Canis lupus familiaris; details: in vivo

Chain of Hydroxycarboxylic acid receptor 3 (Homo sapiens) (P49019 whole entry): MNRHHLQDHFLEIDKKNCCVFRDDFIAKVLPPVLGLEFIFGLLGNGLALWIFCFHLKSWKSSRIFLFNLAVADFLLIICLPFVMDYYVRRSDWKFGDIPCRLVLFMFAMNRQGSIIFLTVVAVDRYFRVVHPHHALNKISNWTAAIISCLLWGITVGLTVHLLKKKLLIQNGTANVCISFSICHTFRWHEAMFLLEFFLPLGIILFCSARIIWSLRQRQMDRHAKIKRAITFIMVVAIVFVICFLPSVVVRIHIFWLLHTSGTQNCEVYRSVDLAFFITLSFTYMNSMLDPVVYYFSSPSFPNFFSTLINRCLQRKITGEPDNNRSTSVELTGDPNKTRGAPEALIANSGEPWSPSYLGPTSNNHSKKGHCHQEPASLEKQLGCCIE

For `CC(C)CC[C@@H]1C2Cc3c(-c4nnn[nH]4)n[nH]c3[C@H]21` (stereo not given in full), which Activity [1] is on record?
The Activity was “inactive”.

Which Activity [1] does the source give for `CCC[C@@H]1[C@H]2Cc3c(-c4nnn[nH]4)n[nH]c3[C@@H]12` here?
The Activity was “inactive”.

What about the Activity [2] of the same molecule?
The Activity was “Active”.

Which Activity [1] does the source give for `O=C(O)c1cccnc1` [NIACIN] here?
The Activity was “inactive”.

And the IC50 [3]?
The IC50 was 60 nM.

With `CC(C)C[C@@H]1[C@H]2Cc3c(-c4nnn[nH]4)n[nH]c3[C@H]21` as the molecule, how does the Activity [1] read?
The Activity was “inactive”.

What about the Activity [2] of the same molecule?
Its Activity is “Active”.

Which Activity [1] does the source give for `C[C@H]1[C@H]2Cc3c(-c4nnn[nH]4)n[nH]c3[C@@H]12` here?
The Activity was “inactive”.

For `C1c2c(-c3nnn[nH]3)n[nH]c2[C@H]2C[C@@H]12` (stereo in doubt; (-)17a), which Activity [1] is on record?
The Activity was “inactive”.

Which Activity [1] does the source give for `CCCCC[C@@H]1[C@H]2Cc3c(-c4nnn[nH]4)n[nH]c3[C@@H]12` here?
The Activity was “inactive”.

With `CC1(C)[C@@H]2c3[nH]nc(-c4nnn[nH]4)c3C[C@@H]21` as the molecule, how does the Activity [1] read?
Its Activity is “inactive”.

Which results are given for `C1c2c(-c3nnn[nH]3)n[nH]c2[C@H]2C[C@@H]12` (stereo in doubt; (+)17a)?
Activity [4]: Active; Activity [5]: inactive; Activity [6]: inactive; Activity [1]: inactive

Which Activity [1] does the source give for `C1c2c(-c3nnn[nH]3)n[nH]c2C2CC12` (racemic) here?
Its Activity is “inactive”.

Which ED50 [7] does the source give for `C1Cc2[nH]nc(-c3nn[nH]n3)c2C1` here?
The ED50 was 3.1 mg/kg.

What about the Activity [1] of the same molecule?
The Activity was “inactive”.

What about the IC50 [3] of the same molecule?
The IC50 was 870 nM.

With `C1CCC2(C1)[C@@H]1c3[nH]nc(-c4nnn[nH]4)c3C[C@@H]12` as the molecule, how does the Activity [1] read?
The Activity was “inactive”.

Which Activity [1] does the source give for `C=CC[C@H]1[C@H]2Cc3c(-c4nnn[nH]4)n[nH]c3[C@H]21` here?
The Activity was “inactive”.

With `C=C[C@@H]1[C@H]2Cc3c(-c4nnn[nH]4)n[nH]c3[C@@H]12` as the molecule, how does the Activity [1] read?
Its Activity is “inactive”.

With `C=CC[C@@H]1[C@H]2Cc3c(-c4nnn[nH]4)n[nH]c3[C@@H]12` as the molecule, how does the Activity [1] read?
The Activity was “inactive”.

For `CC(C)C[C@H]1C2Cc3c(-c4nnn[nH]4)n[nH]c3[C@H]21` (stereo not given in full), which Activity [1] is on record?
Its Activity is “inactive”.

Which Activity [1] does the source give for `C/C=C/[C@@H]1[C@H]2Cc3c(-c4nnn[nH]4)n[nH]c3[C@@H]12` here?
The Activity was “inactive”.

With `CC[C@@H]1[C@H]2Cc3c(-c4nnn[nH]4)n[nH]c3[C@@H]12` as the molecule, how does the Activity [1] read?
The Activity was “inactive”.

For `C1CC1[C@@H]1[C@H]2Cc3c(-c4nnn[nH]4)n[nH]c3[C@H]21`, which Activity [1] is on record?
Its Activity is “inactive”.

Which Activity [1] does the source give for `CCCC[C@@H]1[C@H]2Cc3c(-c4nnn[nH]4)n[nH]c3[C@@H]12` here?
The Activity was “inactive”.

What about the Activity [2] of the same molecule?
The Activity was “Active”.

With `CCCCC[C@H]1[C@H]2Cc3c(-c4nnn[nH]4)n[nH]c3[C@H]21` as the molecule, how does the Activity [1] read?
Its Activity is “inactive”.

Which results are given for `C1c2c(-c3nnn[nH]3)n[nH]c2[C@H]2C[C@@H]12` (stereo in doubt; (+)17a) [3-(1H-TETRAZOL-5-YL)-4,4A,5,5A-TETRAHYDRO-1H-CYCLOPROPA[4,5]CYCLOPENTA[1,2-C]PYRAZOLE (STRUCTURAL MIX)]?
half-life [8]: 2.4 h; clearance [9]: 12.4 mL/min/kg; Vd [10]: 0.34 L/kg; bioavailability [11]: 97%; Vd [12]: 3.4 L/kg; bioavailability [13]: 37%; Cmax [14]: 4.9 µM; half-life [15]: 7.3 h; ED50 [7]: 0.52 mg/kg; Vd [16]: 0.96 L/kg; clearance [17]: 61.6 mL/min/kg; bioavailability [18]: > 100%; clearance [19]: 25.5 mL/min/kg; IC50 [3]: 90 nM; bioavailability [20]: > 100%; half-life [21]: 1.9 h; clearance [22]: 13.9 mL/min/kg; Cmax [23]: 2 µM; Cmax [24]: 11.7 µM; Cmax [25]: 36.9 µM; Vd [26]: 0.53 L/kg; half-life [27]: 1.9 h

Which Activity [1] does the source give for `COC[C@@H]1[C@H]2Cc3c(-c4nnn[nH]4)n[nH]c3[C@@H]12` here?
The Activity was “inactive”.

With `C=C[C@H]1[C@H]2Cc3c(-c4nnn[nH]4)n[nH]c3[C@@H]12` as the molecule, how does the Activity [1] read?
The Activity was “inactive”.

Which Activity [1] does the source give for `C[C@@H]1[C@H]2Cc3c(-c4nnn[nH]4)n[nH]c3[C@@H]12` here?
The Activity was “inactive”.

— ChEMBL document CHEMBL1155464, “Potent tricyclic pyrazole tetrazole agonists of the nicotinic acid receptor (GPR109a)” (Bioorg Med Chem Lett, 2010)
